Tested on: Diabrotica balteata
Test: Activity against Diabrotica balteata (sprayed maize seedlings)
Type: in vivo
Conditions: 12.5 ppm, spray on maize seedlings, second-stage larvae, after 6 days; b227: good activity corresponding to a mortality of at least 50 to 60%
Description: Maize seedlings are sprayed with an aqueous emulsion spray liquor which comprises 12.5 ppm of active compound and, after the spray coating has dried on, populated with 10 larvae of the second stage of Diabrotica balteata and then introduced into a plastic container. After 6 days, the reduction in the population in percent (% activity) is determined by comparing the dead larvae between the treated and the untreated plants.

In the case of `CCC(C)C1OC2(C=CC1C)CC1CC(CC=C(C)C(OC3CC(OC)C(OC4CC(OC)C(C)(NC=O)C(C)O4)C(C)O3)C(C)C=CC=C3COC4C(O)C(C)=CC(C(=O)O1)C34O)O2` (stereo not shown) [Table A8], the “activity in this test (in words)” value is reported as “good activity”.
